Molecules are shown by their SMILES. Counter-ions that a name gives are not always drawn.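 Five concentrations, 48 hours, 96-well plates. GI50 is the concentration that inhibits growth by half.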 The source made the active and inactive calls. No stated cut-off is given here; in the data, active = GI50 up to about 1.1 µM and inactive = higher.

Experimental findings from ChEMBL document CHEMBL1201862, “PubChem BioAssay data set” (2004) are described below.

Among the test systems are ACHN; COLO 205; HCT-116; HCT-15; IGROV-1; KM12; MCF7; MDA-MB-435; MDA-N; NCI-H23; NCI-H460; OVCAR-4; PC-3; SW-620; U-251; UO-31; DU-145; SK-MEL-5; NCI-H522.
Experiment in all cases: NCI anticancer screen, dose series, 48 h

For `COC(=O)Nc1nc2cc(C(=O)c3cccs3)ccc2[nH]1` [NOCODAZOLE], the GI50 in the assay with ACHN was 0.225 µM (active); with COLO 205, 0.0194 µM (active); with HCT-116 it was 0.0152 µM (active); in the assay on HCT-15, 0.0198 µM; with IGROV-1 it was 0.0242 µM (active); with KM12, 0.0139 µM (active). Moreover, the GI50 is 0.0422 µM (active) with MCF7; 0.0111 µM (active) with MDA-MB-435; 0.0124 µM (active) in the assay on MDA-N; 0.0168 µM (active) in the assay on NCI-H23; 0.0179 µM (active) with NCI-H460; 22.3 µM (inactive) with OVCAR-4. The GI50 was 0.0141 µM (active) in the assay with PC-3, 0.0141 µM (active) in the assay with SW-620, 0.0403 µM (active) with U-251 and 0.0579 µM (active) in the assay with UO-31.
In the case of `OCC1OC(c2ccccc2)CC1O` (stereo unspecified), the GI50 with ACHN is > 100 µM (inactive); with COLO 205 it was > 100 µM (inactive); in the assay with DU-145 it was > 100 µM (inactive); with HCT-116, > 100 µM (inactive); in the assay on HCT-15, more than 100 µM; in the assay on IGROV-1 it was > 100 µM (inactive). In addition, the GI50 with KM12, with MCF7, with MDA-MB-435, with NCI-H460, in the assay with OVCAR-4 and in the assay on SK-MEL-5 was > 100 µM (inactive) in each case. Besides, the GI50 with SW-620, in the assay on U-251 and in the assay on UO-31 was > 100 µM (inactive) in each case.
On to `NCCCCNCCCN` [SPERMIDINE TRIHYDROCHLORIDE], for which the GI50 is > 100 µM (inactive) with ACHN; > 100 µM (inactive) with COLO 205; > 100 µM (inactive) with DU-145; > 100 µM (inactive) in the assay on HCT-116; more than 100 µM in the assay with HCT-15; > 100 µM (inactive) in the assay with IGROV-1. Also, the GI50 in the assay with KM12 was > 100 µM (inactive); in the assay with MCF7, 72.8 µM (inactive); in the assay on MDA-MB-435 it was 27.4 µM (inactive); with NCI-H23, > 100 µM (inactive); in the assay with NCI-H460, > 100 µM (inactive); in the assay with NCI-H522, 97.1 µM (inactive). Further, the GI50 in the assay on OVCAR-4 is 16.7 µM (inactive); in the assay on PC-3 it was > 100 µM (inactive); in the assay on SK-MEL-5, > 100 µM (inactive); in the assay on SW-620, > 100 µM (inactive); in the assay with U-251, > 100 µM (inactive); in the assay on UO-31 it was > 100 µM (inactive).
In the case of `N#C/C(=C/c1ccc2c(c1)OCO2)C(=O)c1ccccc1`, the GI50 with ACHN is > 100 µM (inactive); in the assay on COLO 205, > 100 µM (inactive); with HCT-116, > 100 µM (inactive); with HCT-15, more than 100 µM; in the assay with IGROV-1, > 100 µM (inactive); in the assay on KM12 it was > 100 µM (inactive). For the same molecule, the GI50 with NCI-H23, with NCI-H460, in the assay on NCI-H522, in the assay with OVCAR-4, with SK-MEL-5 and in the assay with SW-620 was > 100 µM (inactive) in each case. For the same molecule, the GI50 in the assay with U-251 and in the assay with UO-31 was > 100 µM (inactive) in each case.
As for `O=C(NC1CC1)c1c(O)[nH]c(=S)[nH]c1=O`, the GI50 is > 100 µM (inactive) with ACHN; > 100 µM (inactive) with COLO 205; > 100 µM (inactive) in the assay with HCT-116; more than 100 µM in the assay on HCT-15; > 100 µM (inactive) with IGROV-1; > 100 µM (inactive) in the assay with KM12. Further, the GI50 with NCI-H23, in the assay on NCI-H460, in the assay with NCI-H522, with OVCAR-4, with SK-MEL-5 and in the assay with SW-620 was > 100 µM (inactive) in each case. The GI50 in the assay with U-251 and with UO-31 was > 100 µM (inactive) throughout.
With `Cc1ccccc1/C=C/C(=O)c1ccccc1`, the GI50 in the assay with ACHN is 18.8 µM (inactive); in the assay with COLO 205, 21.4 µM (inactive); in the assay with HCT-116 it was 15.4 µM (inactive); in the assay on HCT-15, more than 10 µM; in the assay on IGROV-1 it was 25.2 µM (inactive); in the assay on KM12, 23.3 µM (inactive). In addition, the GI50 with NCI-H23 was 17.6 µM (inactive); in the assay with NCI-H460, 17.8 µM (inactive); in the assay on NCI-H522, 21.1 µM (inactive); with OVCAR-4, 13.3 µM (inactive); in the assay on SK-MEL-5 it was > 10 µM (inactive); in the assay on SW-620 it was > 10 µM (inactive). For the same molecule, the GI50 is 16.8 µM (inactive) in the assay on U-251 and 21.7 µM (inactive) in the assay with UO-31.
On to `COc1cc(C2C(Cl)C(=O)N2NC(=O)c2ccc(NC(C)=O)cc2OC)ccc1O` (stereo unspecified), for which the GI50 was 23.3 µM (inactive) in the assay with ACHN; 14.9 µM (inactive) in the assay on COLO 205; 21.3 µM (inactive) in the assay with DU-145; 16.9 µM (inactive) with HCT-116; 19.5 µM in the assay on HCT-15; 17.5 µM (inactive) in the assay with IGROV-1. Moreover, the GI50 is 20.4 µM (inactive) in the assay with KM12; 19.3 µM (inactive) in the assay on MCF7; 28 µM (inactive) in the assay with MDA-MB-435; 20 µM (inactive) with MDA-N; 17.7 µM (inactive) in the assay on NCI-H23; 8.45 µM (inactive) in the assay on NCI-H522. For the same molecule, the GI50 in the assay with OVCAR-4 is 39.1 µM (inactive); with PC-3 it was 19.4 µM (inactive); with SK-MEL-5 it was 15.2 µM (inactive); in the assay on SW-620, 24.7 µM (inactive); in the assay on UO-31, 25.1 µM (inactive).
`C=CCC1C(O[Si](C)(C)C(C)(C)C)C(CO[Si](C)(C)C(C)(C)C)OC1n1ccc(=O)[nH]c1=O` (stereo unspecified): the GI50 was 1.6 µM (inactive) in the assay with ACHN; 1.63 µM (inactive) with COLO 205; 1.52 µM (inactive) in the assay with DU-145; 1.06 µM (active) with HCT-116; 1.15 µM with HCT-15; 1.41 µM (inactive) in the assay on IGROV-1. For the same molecule, the GI50 in the assay on KM12 is 1.96 µM (inactive); in the assay with MCF7, 1.15 µM (inactive); in the assay on MDA-MB-435, 1.47 µM (inactive); with MDA-N, 1.51 µM (inactive); in the assay with NCI-H23, 1.29 µM (inactive); in the assay on NCI-H460 it was 1.16 µM (inactive). In addition, the GI50 with OVCAR-4 was 1.15 µM (inactive); in the assay on PC-3, 1.53 µM (inactive); with SK-MEL-5, 1.51 µM (inactive); with SW-620 it was 1.16 µM (inactive); in the assay with U-251, 2.2 µM (inactive); with UO-31 it was 1.36 µM (inactive).
As to `COC(=O)C1CCCC2(C1)OCCO2` (stereo unspecified), the GI50 in the assay with ACHN was > 100 µM (inactive); with COLO 205 it was > 100 µM (inactive); in the assay on HCT-116 it was > 100 µM (inactive); in the assay with HCT-15, more than 100 µM; in the assay on IGROV-1 it was > 100 µM (inactive); in the assay on KM12, > 100 µM (inactive). The GI50 with NCI-H23, in the assay on NCI-H460, in the assay on NCI-H522, in the assay with OVCAR-4, in the assay with SK-MEL-5 and with SW-620 was > 100 µM (inactive) in each case. For the same molecule, the GI50 with U-251 and with UO-31 was > 100 µM (inactive) in each case.
As to `Cc1cc(Cl)ccc1/N=N/C(=O)NNc1ccc(Cl)cc1C`, the GI50 was 16.1 µM (inactive) in the assay on ACHN; 10.7 µM (inactive) with DU-145; 13.4 µM (inactive) with HCT-116; 12.2 µM in the assay with HCT-15; 6.62 µM (inactive) with IGROV-1; 20.7 µM (inactive) in the assay with MDA-MB-435. Moreover, the GI50 with MDA-N was 16.3 µM (inactive); in the assay with NCI-H23, 15.5 µM (inactive); in the assay on NCI-H460 it was 14.4 µM (inactive); in the assay on NCI-H522, 20.3 µM (inactive); with OVCAR-4 it was 17.7 µM (inactive); with PC-3 it was 10.4 µM (inactive). Further, the GI50 is 13.9 µM (inactive) in the assay with SK-MEL-5, 15.9 µM (inactive) in the assay on SW-620, 16.4 µM (inactive) with U-251 and 13 µM (inactive) in the assay with UO-31.
Consider `CCCCNC(=O)C1=C(C)NC(C)=C(C(=O)NCCCC)C1`, for which the GI50 was > 100 µM (inactive) in the assay with ACHN; > 100 µM (inactive) with COLO 205; > 100 µM (inactive) in the assay with DU-145; > 100 µM (inactive) with HCT-116; more than 100 µM with HCT-15; 61.1 µM (inactive) in the assay with IGROV-1. In addition, the GI50 in the assay with KM12, with MCF7, with MDA-MB-435, in the assay with MDA-N, with NCI-H23 and in the assay with NCI-H460 was > 100 µM (inactive) in each case. The GI50 in the assay on OVCAR-4 was > 100 µM (inactive); in the assay on SK-MEL-5, 89.7 µM (inactive); in the assay on SW-620, > 100 µM (inactive); in the assay with U-251, > 100 µM (inactive); with UO-31, > 100 µM (inactive).
In the case of `CC(C)(C)C1=Nc2c(Br)cc(C(C)(C)C)cc2C(C(F)(F)F)(C(F)(F)F)O1`, the GI50 with ACHN is 45 µM (inactive); in the assay with COLO 205, > 100 µM (inactive); in the assay on HCT-116, 41.2 µM (inactive); in the assay on HCT-15 it was 43.7 µM; in the assay with IGROV-1, 65.5 µM (inactive); with KM12, > 100 µM (inactive). Further, the GI50 was > 100 µM (inactive) with NCI-H23; > 100 µM (inactive) with NCI-H460; 31.1 µM (inactive) in the assay on NCI-H522; > 100 µM (inactive) with OVCAR-4; 83.6 µM (inactive) in the assay with SK-MEL-5; 46.7 µM (inactive) in the assay with SW-620. The GI50 is 22.9 µM (inactive) with U-251 and 47.2 µM (inactive) with UO-31.
In the case of `CC1(c2cccc(C3CC4(CCC3=O)OCCCCO4)c2)OCCO1` (stereo unspecified), the GI50 in the assay on ACHN was > 100 µM (inactive); in the assay with COLO 205, > 100 µM (inactive); with HCT-116, > 100 µM (inactive); in the assay with HCT-15, more than 100 µM; in the assay with IGROV-1, > 100 µM (inactive); in the assay on KM12, > 100 µM (inactive). Besides, the GI50 with NCI-H23, in the assay on NCI-H460, with NCI-H522, with OVCAR-4, with SK-MEL-5 and with SW-620 was > 100 µM (inactive) each time. For the same molecule, the GI50 in the assay on U-251 and in the assay with UO-31 was > 100 µM (inactive) each time.
